Measured values: PMC11007962, “First-in-human study of GFH018, a small molecule inhibitor of transforming growth factor-β receptor I inhibitor, in patients with advanced solid tumors” (BMC Cancer, 2024)
Marks after values point to notes of the source that are not given here.

Tests used:
advanced solid tumors = assay: Clinical efficacy: tumor response per RECIST 1.1; type: in vivo, human
Method: The endpoints for efficacy, including the objective response rate (ORR), disease control rate (DCR), progression-free survival (PFS), and time to progression (TTP), were assessed per RECIST 1.1. Tumor response was evaluated every two treatment cycles until disease progression, start of a new antitumor treatment, consent withdrawal, loss to follow-up, or study termination for other reasons.

[1] = design: method as in doi:10.1158/1538-7445.AM2019-3072; settings: preclinical; cited from earlier work
[2] = test system: recurrent/metastatic nasopharyngeal carcinoma (R/M NPC); design: method as in doi:10.1200/JCO.2023.41.16_suppl.6026; settings: ongoing phase Ib/II study; cited from earlier work
[3] = 5 mg BID 14d-on/14d-off (N = 4)
[4] = 10 mg BID 14d-on/14d-off (N = 3)
[5] = 20 mg BID 14d-on/14d-off (N = 4)
[6] = 30 mg BID 14d-on/14d-off (N = 7)
[7] = 40 mg BID 14d-on/14d-off (N = 4)
[8] = 50 mg BID 14d-on/14d-off (N = 4)
[9] = 65 mg BID 14d-on/14d-off (N = 6)
[10] = 85 mg BID 14d-on/14d-off (N = 12)

Cc1cccc(-c2nn3c(c2-c2ccc4ncnn4c2/C=C/C(N)=O)CCC3)n1 [GFH018]
BOR: CR (advanced solid tumors; [3]): 0 n (%) | BOR: NA (no postbaseline assessments after the start date) (advanced solid tumors; [3]): 2 (50.0%) n (%) | BOR: NE (not estimable) (advanced solid tumors; [3]): 0 n (%) | BOR: Non-CR/Non-PD (advanced solid tumors; [3]): 0 n (%) | BOR: PD (advanced solid tumors; [3]): 2 (50.0%) n (%) | BOR: PR (advanced solid tumors; [3]): 0 n (%) | BOR: SD (advanced solid tumors; [3]): 0 n (%) | DCR (90%CI) (advanced solid tumors; [3]): 0 n (%) | ORR (90%CI) (advanced solid tumors; [3]): 0 n (%) | BOR: CR (advanced solid tumors; [4]): 0 n (%) | BOR: NA (no postbaseline assessments after the start date) (advanced solid tumors; [4]): 0 n (%) | BOR: NE (not estimable) (advanced solid tumors; [4]): 0 n (%) | BOR: Non-CR/Non-PD (advanced solid tumors; [4]): 0 n (%) | BOR: PD (advanced solid tumors; [4]): 2 (66.7%) n (%) | BOR: PR (advanced solid tumors; [4]): 0 n (%) | BOR: SD (advanced solid tumors; [4]): 1 (33.3%) n (%) | DCR (90%CI) (advanced solid tumors; [4]): 1 (33.3%) (0.84%, 90.57%) n (%) | ORR (90%CI) (advanced solid tumors; [4]): 0 n (%) | BOR: CR (advanced solid tumors; [5]): 0 n (%) | BOR: NA (no postbaseline assessments after the start date) (advanced solid tumors; [5]): 1 (25.0%) n (%) | BOR: Non-CR/Non-PD (advanced solid tumors; [5]): 0 n (%) | BOR: PD (advanced solid tumors; [5]): 1 (25.0%) n (%) | BOR: PR (advanced solid tumors; [5]): 0 n (%) | BOR: SD (advanced solid tumors; [5]): 1 (25.0%) n (%) | DCR (90%CI) (advanced solid tumors; [5]): 1 (25.0%) (0.63%, 80.59%) n (%) | ORR (90%CI) (advanced solid tumors; [5]): 0 n (%) | BOR: NE (not estimable) (advanced solid tumors; 20 mg BID 14d-on/14d-off (N = 4), SD of insufficient duration): 1 (25.0%)^e n (%) | BOR: CR (advanced solid tumors; [6]): 0 n (%) | BOR: NA (no postbaseline assessments after the start date) (advanced solid tumors; [6]): 3 (42.9%) n (%) | BOR: NE (not estimable) (advanced solid tumors; [6]): 0 n (%) | BOR: Non-CR/Non-PD (advanced solid tumors; [6]): 0 n (%) | BOR: PD (advanced solid tumors; [6]): 3 (42.9%) n (%) | BOR: PR (advanced solid tumors; [6]): 0 n (%) | BOR: SD (advanced solid tumors; [6]): 1 (14.3%) n (%) | DCR (90%CI) (advanced solid tumors; [6]): 1 (14.3%) (0.36%, 57.87%) n (%) | ORR (90%CI) (advanced solid tumors; [6]): 0 n (%) | BOR: CR (advanced solid tumors; [7]): 0 n (%) | BOR: NA (no postbaseline assessments after the start date) (advanced solid tumors; [7]): 1 (25.0%) n (%) | BOR: NE (not estimable) (advanced solid tumors; [7]): 0 n (%) | BOR: Non-CR/Non-PD (advanced solid tumors; [7]): 0 n (%) | BOR: PD (advanced solid tumors; [7]): 3 (75.0%) n (%) | BOR: PR (advanced solid tumors; [7]): 0 n (%) | BOR: SD (advanced solid tumors; [7]): 0 n (%) | DCR (90%CI) (advanced solid tumors; [7]): 0 n (%) | ORR (90%CI) (advanced solid tumors; [7]): 0 n (%) | BOR: CR (advanced solid tumors; [8]): 0 n (%) | BOR: NA (no postbaseline assessments after the start date) (advanced solid tumors; [8]): 2 (50.0%) n (%) | BOR: NE (not estimable) (advanced solid tumors; [8]): 0 n (%) | BOR: Non-CR/Non-PD (advanced solid tumors; [8]): 0 n (%) | BOR: PD (advanced solid tumors; [8]): 1 (25.0%) n (%) | BOR: PR (advanced solid tumors; [8]): 0 n (%) | BOR: SD (advanced solid tumors; [8]): 1 (25.0%) n (%) | DCR (90%CI) (advanced solid tumors; [8]): 1 (25.0%) (0.63%, 80.59%) n (%) | ORR (90%CI) (advanced solid tumors; [8]): 0 n (%) | BOR: CR (advanced solid tumors; [9]): 0 n (%) | BOR: NA (no postbaseline assessments after the start date) (advanced solid tumors; [9]): 0 n (%) | BOR: NE (not estimable) (advanced solid tumors; [9]): 0 n (%) | BOR: Non-CR/Non-PD (advanced solid tumors; [9]): 0 n (%) | BOR: PD (advanced solid tumors; [9]): 5 (83.3%) n (%) | BOR: PR (advanced solid tumors; [9]): 0 n (%) | BOR: SD (advanced solid tumors; [9]): 1 (16.7%) n (%) | DCR (90%CI) (advanced solid tumors; [9]): 1 (16.7%) (0.42%, 64.12%) n (%) | ORR (90%CI) (advanced solid tumors; [9]): 0 n (%) | BOR: CR (advanced solid tumors; 85 mg BID 7d-on/7d-off (N = 6)): 0 n (%) | BOR: NA (no postbaseline assessments after the start date) (advanced solid tumors; 85 mg BID 7d-on/7d-off (N = 6)): 3 (50.0%) n (%) | BOR: NE (not estimable) (advanced solid tumors; 85 mg BID 7d-on/7d-off (N = 6)): 0 n (%) | BOR: Non-CR/Non-PD (advanced solid tumors; 85 mg BID 7d-on/7d-off (N = 6)): 0 n (%) | BOR: PD (advanced solid tumors; 85 mg BID 7d-on/7d-off (N = 6)): 2 (33.3%) n (%) | BOR: PR (advanced solid tumors; 85 mg BID 7d-on/7d-off (N = 6)): 0 n (%) | BOR: SD (advanced solid tumors; 85 mg BID 7d-on/7d-off (N = 6)): 1 (16.7%) n (%) | DCR (90%CI) (advanced solid tumors; 85 mg BID 7d-on/7d-off (N = 6)): 1 (16.7%) (0.42%, 64.12%) n (%) | ORR (90%CI) (advanced solid tumors; 85 mg BID 7d-on/7d-off (N = 6)): 0 n (%) | BOR: CR (advanced solid tumors; [10]): 0 n (%) | BOR: NA (no postbaseline assessments after the start date) (advanced solid tumors; [10]): 5 (41.7%) n (%) | BOR: NE (not estimable) (advanced solid tumors; [10]): 0 n (%) | BOR: Non-CR/Non-PD (advanced solid tumors; [10]): 0 n (%) | BOR: PD (advanced solid tumors; [10]): 4 (33.3%) n (%) | BOR: PR (advanced solid tumors; [10]): 0 n (%) | BOR: SD (advanced solid tumors; [10]): 3 (25.0%) n (%) | DCR (90%CI) (advanced solid tumors; [10]): 3 (25.0%) (5.49%, 57.19%) n (%) | ORR (90%CI) (advanced solid tumors; [10]): 0 n (%) | DCR (advanced solid tumors; 85 mg BID, 14 d-on/14 d-off, twelve patients): 25.0% | median PFS (advanced solid tumors; 85 mg BID, 14 d-on/14 d-off, twelve patients, 90% CI, 0.82–3.75): 1.8 months | complete response (CR) or partial response (PR) (advanced solid tumors; 50 enrolled patients, 33 with at least one tumor assessment): No complete response (CR) or partial response (PR) was observed | BOR: CR (advanced solid tumors; Total (N = 50)): 0 n (%) | BOR: NA (no postbaseline assessments after the start date) (advanced solid tumors; Total (N = 50)): 17 (34.0%) n (%) | BOR: Non-CR/Non-PD (advanced solid tumors; Total (N = 50)): 0 n (%) | BOR: PD (advanced solid tumors; Total (N = 50)): 23 (46.0%) n (%) | BOR: PR (advanced solid tumors; Total (N = 50)): 0 n (%) | BOR: SD (advanced solid tumors; Total (N = 50)): 9 (18.0%) n (%) | DCR (90%CI) (advanced solid tumors; Total (N = 50)): 9 (18.0%) (8.58%, 31.44%) n (%) | ORR (90%CI) (advanced solid tumors; Total (N = 50)): 0 n (%) | BOR: NE (not estimable) (advanced solid tumors; Total (N = 50), SD of insufficient duration): 1 (2.0%)^e n (%) | maximum target lesion decrease (advanced solid tumors; one patient with thymic carcinoma, 65 mg BID): 18.4% | effect in combination with anti-PD-1/L1 antibodies [1]: Synergistic effects were observed | efficacy in combination with toripalimab [2]: promising efficacy was shown
